Experimental data: patent publication US20110165652A1, “COMPOSITIONS, METHODS AND SYSTEMS FOR SINGLE MOLECULE SEQUENCING” (LIFE TECHNOLOGIES CORPORATION, priority 2008, published 2011)

What was measured:
Format in all cases: biochemical
[1] = tested on: 5′ fluorescein-labeled primer:template duplex; test: Ensemble primer extension with gamma-labeled dNTP by Phi29 mutant protein; conditions: for Ensemble Extension Activity: γ-nucleotide incorporation / Ensemble Extension Activity: activity with base-labeled nucleotides: relative to parent Phi29 exo(−) D12A/D66A; for Ensemble Extension Activity: γ-nucleotide incorporation: 0.5 μM or 5 μM gamma-labeled dNTP, 10 seconds to 5 minutes; for Ensemble Extension Activity (polymerase active): cysteine to serine variants
Source text: Table 1, below, summarizes the ability of each mutant Phi29 polymerase to incorporate gamma-labeled nucleotides (as indicated in the column entitled “Ensemble Extension Activity”), fidelity of replication (as indicated in the column entitled “Fidelity”) and for activity in a single-molecule detected system, as depicted in FIGS. 20-59′ and 69-76 and associated description (see below), and indicated in the last column, entitled “Activity on Detection System.” Each and every mutation introduced into a given Phi29 mutant protein is listed in the column entitled “Mutations”; mutations are designated by the original amino acid/its position/its replacement, e.g., V250A means that valine at position 250 was replaced by alanine by site specific mutagenesis. If two or more amino acid substitutions are made, then each is designated as above and separated by a “/”. The predicted effect of a given mutation on polymerase activity, based on structure-function analysis of Phi29 polymerase, is provided in the column entitled “Expected Effect.” The various Phi29 mutants generated via selective mutagenesis, along with any applicable results of extension studies, fidelity assays and single molecule detection studies using each mutant protein, are collectively summarized in Table 1, below. To perform the extension studies, 330 nM Phi29 mutant protein and 100 nM 5′ fluorescein-labeled primer:template duplex were co-incubated in a solution comprising 50 mM Tris (pH 7.0), 2 mM MnCl2, 2 mM DTT, 0.1% Triton-X-100, 0.01% Tween-20. The reactions were initiated by addition of 0.5 μM or 5 μM of gamma-labeled dNTP, and quenched via addition of 30 mM EDTA at timepoints ranging from 10 seconds to 5 minutes. The reaction products were then separated on a 20% denaturing acrylamide gel and imaged on a Bio-Rad Molecular Imager FX. The intensity of each reaction product was quantified using Bio-Rad Quantity One software. FIGS. 20-59′ depict the results of extension studies conducted using specific Phi29 mutants.

[2] = tested on: template specifying incorporation of a single γ-labeled nucleotide; test: Real time on-surface single molecule detection of γ-labeled nucleotide incorporation; conditions: for Activity on Detection System: more signals: number of signals relative to parent enzyme
Procedure: Real time “On surface” experiments were performed to characterize the activity of the Phi29 variants on an exemplary single molecule sequencing system (FIGS. 72A and B). Chambered slides were prepared to facilitate injection and multiple experiments data collection from several chambers using a single slide. The template specified incorporation of a single γ-labeled nucleotide. The samples were excited using a 488 nm Argon ion laser at 2.5 mW and the data were collected at 25 ms integration time. Each stream of data was collected for 1500 frames, consecutive streams were collected for ˜5 minutes by moving to new fields of views (FOVs). FRETAN software was used to obtain the donor and acceptor traces.
After trace analysis, the selected signals (with acceptor signal over background greater than 4, i.e., ASN≧4) were characterized by examining attributes including duration, ASN and timing of signal appearance (i.e., start of signals). The variants that are of special interest include Variants 2 and 3.

[3] = tested on: 5′ fluorescein-labeled primer:template duplex; test: Replication fidelity: primer extension with incorrect (non-complementary) gamma-labeled nucleotide; conditions: incorrect gamma-labeled nucleotide in lieu of the complementary one
Procedure: To assay the replication fidelity of each mutant Phi29 polymerase protein, primer extensions were carried out in the same manner, except that an incorrect (i.e., non-complementary) gamma-labeled nucleotide was added to the extension mixture in lieu of the complementary nucleotide, and the amount of extended product following extension in presence of the incorrect nucleotide was analyzed.

Substance	Ensemble Extension Activity: γ-nucleotide incorporation [1]	also measured
E375Y/V250G: Phi29 exo(−) (D12A/D66A) polymerase mutant	no activity	–
E375W: Phi29 exo(−) (D12A/D66A) polymerase mutant [Variant E375W]	Increased γ-nucleotide	–
S388G: Phi29 exo(−) (D12A/D66A) polymerase mutant [Variant S388G]	Decreased γ-nucleotide	–
E375A/Q380A: Phi29 exo(−) (D12A/D66A) polymerase mutant	More efficient	Activity on Detection System: more signals [2]: 3.5x more signals.
C448S: Phi29 exo(−) (D12A/D66A) polymerase mutant [Variant C448S]	–	Ensemble Extension Activity (polymerase active) [1]: Active
Y254V: Phi29 exo(−) (D12A/D66A) polymerase mutant [Variant Y254V]	Decreased γ-nucleotide	Ensemble Extension Activity: activity with base-labeled nucleotides [1]: incorporation, but increased
E486A: Phi29 exo(−) (D12A/D66A) polymerase mutant [Variant E486A]	Slightly decreased γ-	–
V250I/E375A/Q380A: Phi29 exo(−) (D12A/D66A) polymerase mutant	Decreased rate	–
E375Y/V250W: Phi29 exo(−) (D12A/D66A) polymerase mutant	no activity	–
D456S: Phi29 exo(−) (D12A/D66A) polymerase mutant [Variant D456S]	Impaired	Activity on Detection System: more signals [2]: Fewer signals.
K371T: Phi29 exo(−) (D12A/D66A) polymerase mutant [Variant K371T]	Slightly lower than	–
V250A/E375A/Q380A/D456E: Phi29 exo(−) (D12A/D66A) polymerase mutant	Impaired	–
N387A: Phi29 exo(−) (D12A/D66A) polymerase mutant [Variant N387A]	Significantly decreased γ-	Activity on Detection System: more signals [2]: Fewer signals.
V250I/E375Y: Phi29 exo(−) (D12A/D66A) polymerase mutant	Decreased rate	–
L384R: Phi29 exo(−) (D12A/D66A) polymerase mutant [Variant L384R]	Slightly decreased γ-	–
E375Y/V250Q: Phi29 exo(−) (D12A/D66A) polymerase mutant	decreased	–
C22S/C448S/C530S: Phi29 exo(−) (D12A/D66A) polymerase mutant	–	Ensemble Extension Activity (polymerase active) [1]: Slightly less
K512A: Phi29 exo(−) (D12A/D66A) polymerase mutant [Variant K512A]	Slightly decreased γ-	–
E375C: Phi29 exo(−) (D12A/D66A) polymerase mutant [Variant E375C]	More efficient	Activity on Detection System: more signals [2]: Slightly higher; Activity on Detection System: Signals detected (timing of appearance) ([2]; relative to parent enzyme): earlier.; Activity on Detection System: high ASB signals ([2]; relative to parent enzyme): More high ASB signals.
E375Y/V250C: Phi29 exo(−) (D12A/D66A) polymerase mutant	decreased	–
D458N: Phi29 exo(−) (D12A/D66A) polymerase mutant [Variant D458N]	No activity	Fidelity (mis-incorporation) [3]: No activity
C290S: Phi29 exo(−) (D12A/D66A) polymerase mutant [Variant C290S]	–	Ensemble Extension Activity (polymerase active) [1]: Active
K383R: Phi29 exo(−) (D12A/D66A) polymerase mutant [Variant K383R]	Slightly lower than	–

Substance	Ensemble Extension Activity: γ-nucleotide incorporation [1]	also measured
K383P: Phi29 exo(−) (D12A/D66A) polymerase mutant [Variant K383P]	decreased γ-nucleotide	–
C290S/C448S/C530S: Phi29 exo(−) (D12A/D66A) polymerase mutant	–	Ensemble Extension Activity (polymerase active) [1]: Slightly less
C530S: Phi29 exo(−) (D12A/D66A) polymerase mutant [Variant C530S]	–	Ensemble Extension Activity (polymerase active) [1]: Active
E375Y/V250S: Phi29 exo(−) (D12A/D66A) polymerase mutant	decreased	–
N387Y: Phi29 exo(−) (D12A/D66A) polymerase mutant [Variant N387Y]	Significantly decreased γ-	–
E375Y/V250P: Phi29 exo(−) (D12A/D66A) polymerase mutant	no activity	–
E375Y/V250R: Phi29 exo(−) (D12A/D66A) polymerase mutant	no activity	–
Y254F: Phi29 exo(−) (D12A/D66A) polymerase mutant [Variant Y254F]	Decreased γ-nucleotide	Ensemble Extension Activity: activity with base-labeled nucleotides [1]: incorporation, but increased
C22S/C290S/C530S: Phi29 exo(−) (D12A/D66A) polymerase mutant	–	Ensemble Extension Activity (polymerase active) [1]: Slightly less
V250I: Phi29 exo(−) (D12A/D66A) polymerase mutant [Variant V250I]	Decreased rate	Activity on Detection System: long duration signals ([2]; relative to parent enzyme): More long duration
K478A: Phi29 exo(−) (D12A/D66A) polymerase mutant [Variant K478A]	Decreased γ-nucleotide	–
K383A: Phi29 exo(−) (D12A/D66A) polymerase mutant [Variant K383A]	Slightly lower than	–
E375Y/V250K: Phi29 exo(−) (D12A/D66A) polymerase mutant	no activity	–
C22S/C290S/C448S: Phi29 exo(−) (D12A/D66A) polymerase mutant	–	Ensemble Extension Activity (polymerase active) [1]: Slightly less
C22S: Phi29 exo(−) (D12A/D66A) polymerase mutant [Variant C22S]	–	Ensemble Extension Activity (polymerase active) [1]: Active
E375Y/V250T: Phi29 exo(−) (D12A/D66A) polymerase mutant	decreased	–
E375Y: Phi29 exo(−) (D12A/D66A) polymerase mutant [Variant E375Y]	More efficient	extension (FIG. 70C, 70D) ([1]; ensemble PAGE analyses, γ-nucleotides): most significant increase in extension; Activity on Detection System: more signals [2]: 3x more signals.; Activity on Detection System: long duration signals ([2]; relative to parent enzyme): More long duration
K371A: Phi29 exo(−) (D12A/D66A) polymerase mutant [Variant K371A]	Slightly lower than	–
E486D: Phi29 exo(−) (D12A/D66A) polymerase mutant [Variant E486D]	Decreased γ-nucleotide	–
E375Y/V250D: Phi29 exo(−) (D12A/D66A) polymerase mutant	no activity	–
E375Y/V250H: Phi29 exo(−) (D12A/D66A) polymerase mutant	decreased rate	–
E375Y/V250L: Phi29 exo(−) (D12A/D66A) polymerase mutant	decreased	–
V250I/E375C: Phi29 exo(−) (D12A/D66A) polymerase mutant	Decreased rate	–
